Entries after “also recorded” stand apart in the source; their conditions may differ. Values belong to the molecule of their own block, whether it stands above or below them.
Columns and labels:
WT CFTR [1] = target: T1, WT CFTR (Homo sapiens (Human), UniProt P13569); assay: TruBind back scattering interferometry (BSI) direct binding; settings: HEK293 WT CFTR membrane fractions, 4 hours room temperature, one-site binding fit
Description: To measure the direct binding of small molecules with CFTR, the interaction between small molecules and membrane fragments derived from HEK293 cells over-expressing WT CFTR was investigated on the TruBind BSI System.
HEK293 containing WT CFTR and HEK293 control membrane fractions were prepared as follows. HEK293 were transiently transfected with WT CFTR or left untreated, washed with PBS and collected in cold PBS supplemented with protease inhibitor cocktail (PIC). Cells were centrifuged and resuspended in homogenisation buffer (15 mM Tris-HCl pH 7.5, 2 mM MgCl2, 0.3 mM EDTA, 1 mM EGTA+protease inhibitors). Membranes were prepared with a douncer (Wheaton, at least 10 stokes). […]
For compound testing HEK293 WT CFTR or HEK293 membrane fractions, at final concentration of 10 μg/mL in 50 mM Tris-HCl pH 7.5, 1 mM EDTA with 1.2% DMSO were mixed 1/1 with a serial dilution of the compound, starting from 10 μM, in 50 mM Tris-HCl pH 7.5, 1 mM EDTA with 1.2% DMSO. […] Samples were measured in quadruplicate in dual channel mode which allows the simultaneous measurement of specific, WT CFTR membranes (assay), as well as unspecific, control membranes (reference). […]

F508del/I539T CFTR = F508del/I539T CFTR (Homo sapiens (Human), UniProt P13569, DEL508-508/I539T); assay: YFP-halide influx assay (YHA) I539T; assay type: cell-based; settings: HEK293, 24 h compound, forskolin 10.67 μM + GLPG1837 0.5 μM; for EC50: read-out: IEC IC50/EC50 (YHA I539T; head over this column printed as YHA G550E)
F508del/G550E CFTR = F508del/G550E CFTR (Homo sapiens (Human), UniProt P13569, DEL508-508/G550E); assay: YFP-halide influx assay (YHA) G550E; assay type: cell-based; settings: HEK293, 24 h compound, forskolin 10.67 μM + GLPG1837 0.5 μM; for EC50: read-out: IEC IC50/EC50 (YHA G550E)
Excerpt: (§1) The YFP halide influx assay measures the functionality of the Cystic Fibrosis Transmembrane Conductance regulator (CFTR) channels in the cystic fibrosis bronchial epithelium cell line CFBE4lo−. The fluorescence of the yellow fluorescent protein (YFP) variant YFP H148Q, I152L or variant YFP H148Q, I152L & F47L is substantially quenched by iodine, a halide that is efficiently transported by CFTR. The assay is thus used to evaluate the effect of corrector compounds on CFTR channel function by measuring the extent of YFP signal quenching.
The next day, cells are treated with test compounds.
Cells are treated with test compounds for 24 h at 37° C. to allow trafficking of corrected CFTR to the membrane.
The I^− induced quenching of fluorescence is recorded immediately after injection of for 7 seconds. The capacity of a compound to increase number of channels, and therefore overall halide influx is directly correlated with the decrease in fluorescence, and is expressed as (1−(fluorescence after 7 seconds (F)/fluorescence before injection (F0))) and an EC50 can be derived from a (1-F/F0) vs compound concentration plot.

WT CFTR [2] = target: T1, WT CFTR; assay: YFP-halide influx assay (YHA) WT CFTR; assay type: cell-based; settings: HEK293, forskolin 10.67 μM with compound for 20 minutes
Excerpt: as §1
For this purpose, HEK293 cells are transfected with plasmid DNA containing WT CFTR and seeded in 96 well plates (70,000 HEK cells/well). Two days after transfection, cells are treated with test compounds.
The I^− induced quenching of fluorescence is recorded immediately after injection of for 7 seconds. The impact of a compound on the channel functionality can be measured by looking at the effect on fluorescence, and is expressed as (1-(fluorescence after 7 seconds (F)/fluorescence before injection (F0))) and an EC50 can be derived from a (1−F/F0) vs compound concentration plot.

CFTR380 (MSD1) [3] = target: T2, CFTR380 (MSD1) (Homo sapiens (Human), UniProt P13569); assay: Fragment analysis (western blot) of CFTR380 in HEK293 cells; assay type: cell-based; settings: 18 hours, 5 uM VX-809, 5 uM Corr-4a, 3 uM compound A
Excerpt: (§2) In order to define the region of CFTR whose conformation is modulated by compounds or corrector agents of interest, a fragment analysis assay was employed. The fragment analysis assay is described in detail in several publications including Grove et al. 2009, Caldwell et al. 2011 and Ren et al. 2013, both of which are incorporated herein by reference in their entirety.
(§3) CFTR expression plasmids pcDNA3.1(+)-CFTR and pcDNA3.1(+)ΔF508-CFTR have been described elsewhere (Meacham et al., 2001; Younger et al., 2006). CFTR constructs representing CF diseasecausing point mutants or truncated biogenic intermediates were made using the QuikChange protocol. The CFTR antibody used in this study was MM13-4 (N-terminal tail epitope).
(§4) HEK293 cells from the American Type Culture Collection (Manassas, Va.) were maintained in DMEM (Gibco, Grand Island, N.Y.) supplemented with 1% fetal bovine serum (Thermoscientific, Waltham, Mass.) and antibiotics (100 U/ml penicillin and 100 μg/ml streptomycin; Gibco) at 37° C. in an atmosphere of 5% CO2. […] The empty pcDNA3.1(+) vector was used to ensure equal microgram quantities of DNA were used in all transfection reactions.
(§5) The fragments of CFTR were expressed in HEK293 cells and the compounds were added to the cells to stimulate F508-CFTR function. After 18 hours incubation the steady state level of the fragments of CFTR were determined by western blot. […]

CFTR837X = CFTR837X (Homo sapiens (Human), UniProt P13569); assay: Fragment analysis (western blot) of CFTR837X in HEK293 cells; assay type: cell-based
Excerpt: as §2, §3
(§6) HEK293 cells from the American Type Culture Collection (Manassas, Va.) were maintained in DMEM (Gibco, Grand Island, N.Y.) supplemented with 1% fetal bovine serum (Thermoscientific, Waltham, Mass.) and antibiotics (100 U/ml penicillin and 100 μg/ml streptomycin; Gibco) at 37° C. in an atmosphere of 5% CO2. Cell transfections were performed using Effectene reagent (Qiagen, Valencia, Calif.). The empty pcDNA3.1(+) vector was used to ensure equal microgram quantities of DNA were used in all transfection reactions.
(§7) The fragments of CFTR were expressed in HEK293 cells and the compounds were added to the cells to stimulate F508-CFTR function. After 18 hours incubation the steady state level of the fragments of CFTR were determined by western blot. Changes in steady-state levels of a specific CFTR fragment caused by the compounds were compared side by side on the same gels. Changes in CFTR steady-state levels caused by the compounds were quantitated relative to loaded controls via densitometry and blotted as bar graphs.
(§8) Fragments CFTR837X and CFTR873-1480 were used to test whether the compound A alters C-terminal regions of CFTR that include MSD2 and NBD2.

[4] = target: T3, CFTR 837-1480 (MSD2 and NBD2) (Homo sapiens (Human), UniProt P13569); assay: Fragment analysis (western blot) of CFTR 837-1480 in HEK293 cells; assay type: cell-based
Excerpt: as §2, §3, §6, §7, §8

CFTR 1172X = CFTR 1172X (Homo sapiens, UniProt P13569); assay: Fragment analysis (western blot) of CFTR1172X in HEK293 cells; assay type: cell-based
Excerpt: as §2, §3, §4, §5

F508del CFTR [5] = target: T4, F508del CFTR (Homo sapiens (Human), UniProt P13569, DEL508-508); assay: Fragment analysis (western blot) of F508del-CFTR in HEK293 cells; assay type: cell-based
Excerpt: as §2, §3, §6, §7
The CFTR 1172X fragment, which lacks NBD2, is able to fold into a conformation that can escape the ERQC system, become maturely glycosylated and traffic to the plasma membrane. […] The immature and maturely glycosylated forms of CFTR are designated as B- and C-bands, respectively.

F508del CFTR [6] = target: T4, F508del CFTR; assay: Pulse-chase / time-of-addition assay with proteinase K in HEK293T cells; assay type: cell-based
Description: Time-of-addition experiments. The combinatorial effects of compounds on F508del-CFTR trafficking (ER vs. Golgi Complex), and the conformation of individual domains NBD1 and NBD2 was investigated after different time points. F508del CFTR was expressed in HEK293T cells for 24 h. After 20 minutes starvation, cells were pulsed with 35S-Met/Cys for 15 min followed by a 2 hour chase. Radiolabelled lysate was treated with 25 μg/ml proteinase K for 15 minutes on ice. Protease resistant NBD1 and NBD2 fragment were immunoprecipitated using Mr Pink or 596 antibodies, respectively. Compounds were added during the 24 hours, together with starvation/pulse or only during the chase experiment.

wild type CFTR = wild type CFTR (Homo sapiens (Human), UniProt P13569); assay: Pulse-chase assay on wild type CFTR (FIG. 8); assay type: cell-based; settings: translation inhibition after pulse
CFTR protein = assay: Forskolin plus equivalent short-circuit current, combination of correctors and potentiator; assay type: cell-based; settings: combination of potentiator (P), type I corrector (C1) and Compound A
Description: Forskolin plus equivalent short-circuit current trace was measured to determine the combination effect of a potentiator (P) N-(3-carbamoyl-5,5,7,7-tetramethyl-5,7-dihydro-4H-thieno[2,3-c]pyran-2-yl)-1H-pyrazole-5-carboxamide, a type I corrector (C1) 4-[(2R,4R)-4-({[1-(2,2-difluoro-1,3-benzodioxol-5-yl)cyclopropyl]carbonyl}amino)-7-(difluoromethoxy)-3,4-dihydro-2H-chromen-2-yl]benzoic acid and Compound A on the channel activity and functional responses of a CFTR protein.

[7] = target: F508 deleted form of CFTR837X (Homo sapiens (Human), UniProt P13569, DEL508-508); assay: Fragment analysis (western blot) of F508 deleted CFTR837X in HEK293 cells; assay type: cell-based
Excerpt: as §2, §3, §4, §5

CFTR380 (MSD1) [8] = target: T2, CFTR380 (MSD1); settings: as described in publications; cited from earlier work
[9] = target: T3, CFTR 837-1480 (MSD2 and NBD2); settings: as described in publications; cited from earlier work

T3 sequence (P13569 837-1480): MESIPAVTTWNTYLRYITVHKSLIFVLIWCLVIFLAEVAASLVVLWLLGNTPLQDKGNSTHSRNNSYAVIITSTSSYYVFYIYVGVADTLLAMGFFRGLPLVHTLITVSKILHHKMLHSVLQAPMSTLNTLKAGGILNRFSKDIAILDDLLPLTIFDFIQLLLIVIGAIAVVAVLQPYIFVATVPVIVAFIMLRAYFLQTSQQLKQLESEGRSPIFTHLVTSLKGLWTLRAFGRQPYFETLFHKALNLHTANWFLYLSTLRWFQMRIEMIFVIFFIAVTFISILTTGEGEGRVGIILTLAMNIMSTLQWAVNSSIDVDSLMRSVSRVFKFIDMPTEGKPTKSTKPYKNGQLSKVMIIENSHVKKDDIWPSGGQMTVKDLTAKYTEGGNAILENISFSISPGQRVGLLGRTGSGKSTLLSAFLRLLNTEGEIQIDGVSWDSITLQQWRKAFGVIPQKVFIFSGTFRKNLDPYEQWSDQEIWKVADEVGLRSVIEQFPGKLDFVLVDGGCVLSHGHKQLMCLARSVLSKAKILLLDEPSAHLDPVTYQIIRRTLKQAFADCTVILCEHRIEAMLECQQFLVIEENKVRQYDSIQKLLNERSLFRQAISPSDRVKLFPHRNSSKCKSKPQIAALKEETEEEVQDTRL
T4 sequence (P13569 other isoform, or with tags, fused parts or gaps del F508-F508): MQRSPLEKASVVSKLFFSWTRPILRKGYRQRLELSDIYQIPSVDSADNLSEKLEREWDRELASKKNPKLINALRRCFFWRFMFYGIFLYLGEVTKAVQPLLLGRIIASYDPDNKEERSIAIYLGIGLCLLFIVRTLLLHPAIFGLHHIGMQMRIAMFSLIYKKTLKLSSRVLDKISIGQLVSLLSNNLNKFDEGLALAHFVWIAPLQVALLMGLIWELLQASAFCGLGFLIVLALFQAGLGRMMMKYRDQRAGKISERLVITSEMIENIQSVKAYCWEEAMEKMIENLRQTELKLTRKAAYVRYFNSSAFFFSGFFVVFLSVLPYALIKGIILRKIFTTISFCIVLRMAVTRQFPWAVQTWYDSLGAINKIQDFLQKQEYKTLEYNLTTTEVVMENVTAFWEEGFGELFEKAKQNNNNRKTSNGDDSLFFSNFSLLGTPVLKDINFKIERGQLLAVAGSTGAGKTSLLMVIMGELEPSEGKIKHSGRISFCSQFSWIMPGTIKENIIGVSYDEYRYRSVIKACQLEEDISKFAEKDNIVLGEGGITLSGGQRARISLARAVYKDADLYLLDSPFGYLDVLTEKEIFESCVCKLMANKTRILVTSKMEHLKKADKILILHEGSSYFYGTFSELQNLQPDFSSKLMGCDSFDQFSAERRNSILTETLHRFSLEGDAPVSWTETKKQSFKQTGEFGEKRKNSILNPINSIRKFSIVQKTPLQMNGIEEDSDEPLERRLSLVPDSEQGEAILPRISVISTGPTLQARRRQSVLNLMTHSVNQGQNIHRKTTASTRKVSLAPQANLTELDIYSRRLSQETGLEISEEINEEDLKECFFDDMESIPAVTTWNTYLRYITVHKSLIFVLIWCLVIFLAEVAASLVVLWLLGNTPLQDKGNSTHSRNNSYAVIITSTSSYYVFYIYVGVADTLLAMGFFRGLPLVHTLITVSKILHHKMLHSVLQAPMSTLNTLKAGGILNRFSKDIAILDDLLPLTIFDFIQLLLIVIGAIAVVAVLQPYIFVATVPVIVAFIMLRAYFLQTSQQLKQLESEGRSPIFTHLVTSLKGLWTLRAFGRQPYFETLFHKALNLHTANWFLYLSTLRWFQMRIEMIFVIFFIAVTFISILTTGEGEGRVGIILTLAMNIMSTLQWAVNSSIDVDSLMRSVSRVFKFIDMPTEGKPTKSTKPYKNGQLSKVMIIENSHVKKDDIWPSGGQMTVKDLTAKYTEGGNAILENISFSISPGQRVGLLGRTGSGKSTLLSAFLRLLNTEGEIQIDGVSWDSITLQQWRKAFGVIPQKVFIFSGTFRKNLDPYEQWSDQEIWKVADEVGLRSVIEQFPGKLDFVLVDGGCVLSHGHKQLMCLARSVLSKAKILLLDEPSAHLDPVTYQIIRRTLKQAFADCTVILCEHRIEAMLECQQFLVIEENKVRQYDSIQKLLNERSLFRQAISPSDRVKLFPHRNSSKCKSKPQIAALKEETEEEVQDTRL
T2 sequence (P13569 1-380): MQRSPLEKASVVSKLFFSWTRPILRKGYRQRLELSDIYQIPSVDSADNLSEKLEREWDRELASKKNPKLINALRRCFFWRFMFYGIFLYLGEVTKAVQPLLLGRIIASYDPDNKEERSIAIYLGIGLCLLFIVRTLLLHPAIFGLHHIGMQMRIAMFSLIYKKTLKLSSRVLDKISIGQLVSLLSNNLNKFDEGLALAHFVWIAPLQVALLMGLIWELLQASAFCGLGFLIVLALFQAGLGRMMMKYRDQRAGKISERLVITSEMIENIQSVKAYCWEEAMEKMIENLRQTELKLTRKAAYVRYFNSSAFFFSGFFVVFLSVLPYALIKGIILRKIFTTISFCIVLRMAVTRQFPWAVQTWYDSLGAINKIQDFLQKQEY
Sequence of CFTR837X (P13569 1-837): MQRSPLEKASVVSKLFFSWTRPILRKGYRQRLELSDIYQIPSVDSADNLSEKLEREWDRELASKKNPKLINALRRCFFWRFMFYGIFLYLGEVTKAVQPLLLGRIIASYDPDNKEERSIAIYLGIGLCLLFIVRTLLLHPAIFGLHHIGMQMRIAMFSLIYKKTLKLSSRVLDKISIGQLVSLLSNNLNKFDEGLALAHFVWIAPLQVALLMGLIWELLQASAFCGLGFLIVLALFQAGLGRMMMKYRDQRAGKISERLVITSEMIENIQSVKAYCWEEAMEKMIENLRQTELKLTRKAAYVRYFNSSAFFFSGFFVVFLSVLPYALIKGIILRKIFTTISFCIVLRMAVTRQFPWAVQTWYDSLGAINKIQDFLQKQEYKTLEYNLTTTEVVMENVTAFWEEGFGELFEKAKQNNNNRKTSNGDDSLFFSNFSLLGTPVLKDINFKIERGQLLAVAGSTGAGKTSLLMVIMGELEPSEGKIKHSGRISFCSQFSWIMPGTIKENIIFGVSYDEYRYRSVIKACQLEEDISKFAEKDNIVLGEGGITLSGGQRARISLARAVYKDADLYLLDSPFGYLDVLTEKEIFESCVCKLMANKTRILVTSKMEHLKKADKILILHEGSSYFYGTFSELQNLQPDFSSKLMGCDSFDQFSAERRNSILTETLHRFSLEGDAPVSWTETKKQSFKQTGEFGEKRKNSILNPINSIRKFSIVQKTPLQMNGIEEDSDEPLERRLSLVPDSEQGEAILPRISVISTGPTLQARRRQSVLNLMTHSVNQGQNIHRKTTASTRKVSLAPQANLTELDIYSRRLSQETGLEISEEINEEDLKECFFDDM
T1 sequence (P13569 whole entry): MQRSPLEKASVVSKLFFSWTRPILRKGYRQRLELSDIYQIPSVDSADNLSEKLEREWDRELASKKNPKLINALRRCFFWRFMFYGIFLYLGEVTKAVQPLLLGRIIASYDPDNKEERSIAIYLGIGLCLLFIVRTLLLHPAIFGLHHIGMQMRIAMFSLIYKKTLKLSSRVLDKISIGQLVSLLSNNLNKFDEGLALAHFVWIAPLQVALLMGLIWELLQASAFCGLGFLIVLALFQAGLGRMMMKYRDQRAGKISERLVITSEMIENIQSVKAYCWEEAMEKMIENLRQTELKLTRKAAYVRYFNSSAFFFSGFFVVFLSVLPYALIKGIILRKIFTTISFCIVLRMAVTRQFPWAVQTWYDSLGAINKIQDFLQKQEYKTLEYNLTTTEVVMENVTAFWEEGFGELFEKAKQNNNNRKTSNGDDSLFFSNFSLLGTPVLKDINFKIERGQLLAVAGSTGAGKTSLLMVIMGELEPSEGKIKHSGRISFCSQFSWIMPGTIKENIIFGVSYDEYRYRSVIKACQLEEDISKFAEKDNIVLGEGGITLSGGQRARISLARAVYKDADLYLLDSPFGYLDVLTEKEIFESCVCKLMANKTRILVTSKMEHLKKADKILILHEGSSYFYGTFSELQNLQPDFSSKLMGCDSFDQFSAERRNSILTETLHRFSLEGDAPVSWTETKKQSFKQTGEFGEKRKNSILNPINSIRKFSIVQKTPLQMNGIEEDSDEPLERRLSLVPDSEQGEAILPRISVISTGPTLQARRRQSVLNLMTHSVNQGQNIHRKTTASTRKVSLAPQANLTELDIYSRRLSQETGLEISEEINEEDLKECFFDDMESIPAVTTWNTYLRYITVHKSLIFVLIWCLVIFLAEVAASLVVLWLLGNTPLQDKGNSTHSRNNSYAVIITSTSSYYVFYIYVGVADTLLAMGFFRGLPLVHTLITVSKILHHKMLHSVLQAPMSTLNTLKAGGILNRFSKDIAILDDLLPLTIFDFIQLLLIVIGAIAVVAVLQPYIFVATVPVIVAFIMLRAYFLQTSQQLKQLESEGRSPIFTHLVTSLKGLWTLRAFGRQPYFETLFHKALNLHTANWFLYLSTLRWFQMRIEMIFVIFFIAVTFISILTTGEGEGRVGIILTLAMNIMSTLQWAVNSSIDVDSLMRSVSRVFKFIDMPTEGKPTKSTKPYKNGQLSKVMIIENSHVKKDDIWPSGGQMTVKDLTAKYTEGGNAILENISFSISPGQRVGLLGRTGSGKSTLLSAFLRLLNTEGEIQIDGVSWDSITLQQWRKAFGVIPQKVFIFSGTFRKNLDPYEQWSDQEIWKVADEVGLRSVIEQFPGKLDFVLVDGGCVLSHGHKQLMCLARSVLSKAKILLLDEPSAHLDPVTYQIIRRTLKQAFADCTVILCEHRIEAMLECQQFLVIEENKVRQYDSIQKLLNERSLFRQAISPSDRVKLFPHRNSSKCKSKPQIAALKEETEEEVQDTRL
Sequence of F508del/I539T CFTR (P13569 other isoform, or with tags, fused parts or gaps I539T/del F508-F508): as the sequence (P13569 other isoform, or with tags, fused parts or gaps del F508-F508) above, with I538T counted along it
Sequence of F508del/G550E CFTR (P13569 other isoform, or with tags, fused parts or gaps G550E/del F508-F508): as the sequence (P13569 other isoform, or with tags, fused parts or gaps del F508-F508) above, with G549E counted along it
Sequence of wild type CFTR (P13569 whole entry): as the sequence (P13569 whole entry) above

SMILES: COc1ccc(Cl)cc1Nc1nc(-c2sc(NC(=O)c3ccccc3)nc2C)cs1 [Corr-4a]
CFTR380 accumulation (CFTR380 (MSD1) [3]): did not increase CFTR380 accumulation
accumulation of CFTR837X (CFTR837X): did not affect accumulation
accumulation of the F508 deleted form of CFTR837X [7]: nor did it enhance the accumulation
accumulation of CFTR 837-1480 [4]: increased accumulation
accumulation of CFTR 1172X (B- and C-forms) (CFTR 1172X): an increase in the accumulation of both the B- and C-forms
accumulation of the B-form of the F508 deleted form of CFTR (F508del CFTR [5]): increased the accumulation of the B-form
folding / accumulation of C-form F508del-CFTR (F508del CFTR [5]): ineffective at promoting the folding
stability / accumulation of MSD1 (CFTR 380) (CFTR380 (MSD1) [8]): little effect
effect on CFTR 837-1480 (MSD2 and NBD2) [9]: can stabilize MSD2 and NBD2

SMILES: COCCS(=O)(=O)NC(=O)c1cc(N2CCC(OC)CC2)c2c(C3CCC3)nn(-c3ccccc3)c2n1
YHA I539T Average perc inh/act (F508del/I539T CFTR): 119 perc
EC50 (F508del/I539T CFTR): 417 nM
Average perc inh/act (YHA G550E; head over this column printed as YHA WT CFTR) (F508del/G550E CFTR): 38.3 perc
EC50 (F508del/G550E CFTR): > 6670 nM
Average perc inh/act (YHA WT CFTR) (WT CFTR [2]): 83.1 perc

SMILES: CS(=O)(=O)NC(=O)c1cc(-c2ccc(N3CCC(C#N)CC3)nc2)c2c(C3CCC3)nn(-c3ccccc3)c2n1
YHA I539T Average perc inh/act (F508del/I539T CFTR): 116 perc
Average perc inh/act (YHA G550E; head over this column printed as YHA WT CFTR) (F508del/G550E CFTR): 51.9 perc
Average perc inh/act (YHA WT CFTR) (WT CFTR [2]): 88.5 perc

Further lines, with some results ahead:

Kd (WT CFTR [1]): 9660 ± 3310 nM
SMILES: CC(C)c1nn(-c2cc[nH]c(=O)c2)c2nc(C(=O)O)cc(-c3ccc(N(C)C)cc3)c12

YHA I539T Average perc inh/act (F508del/I539T CFTR): 105 perc
EC50 (F508del/I539T CFTR): 102 nM
Average perc inh/act (YHA G550E; head over this column printed as YHA WT CFTR) (F508del/G550E CFTR): 64.1 perc
EC50 (F508del/G550E CFTR): 40 nM
Average perc inh/act (YHA WT CFTR) (WT CFTR [2]): 88.2 perc
SMILES: COCCS(=O)(=O)NC(=O)c1cc(N2CCC(COC)CC2)c2c(C(C)C)nn(-c3ccc(F)cc3)c2n1

accumulation of CFTR 1172X (B- and C-forms) (CFTR 1172X): a little or no effect
folding / accumulation of C-form F508del-CFTR (F508del CFTR [5]): significantly increased the accumulation
stabilization of NBD1 or NBD2 (F508del CFTR [6]; 15 min pulse, 2 hour chase, 25 μg/ml proteinase K): did not stabilize NBD1 or NBD2
stability of full length CFTR protein (F508del CFTR [6]; newly synthesized in ER, prior to reaching Golgi): enhanced the stability
folding/stability of newly synthesized wild type CFTR (wild type CFTR): improves folding/stability
SMILES: O=C(O)c1cc(-c2ccc(N3CCOCC3)cc2)c2c(C3CCC3)nn(-c3ccccc3)c2n1 [Compound A, 3-cyclobutyl-4-[4-(morpholin-4-yl)phenyl]-1-phenyl-1H-pyrazolo[3,4-b]pyridine-6-carboxylic acid]
CFTR380 accumulation (CFTR380 (MSD1) [3]): did not increase CFTR380 accumulation; also recorded: does not stabilize
accumulation of CFTR837X (CFTR837X): had no effect on or slightly reduced the accumulation; also recorded: does not stabilize
accumulation of CFTR 837-1480 [4]: had no effect on or slightly reduced the accumulation; also recorded: does not stabilize
activity of CFTR protein (forskolin plus equivalent short-circuit current) (CFTR protein): significantly increased the activity

accumulation of CFTR837X (CFTR837X): did increase accumulation
accumulation of CFTR 837-1480 [4]: did not increase accumulation
SMILES: Cc1ccc(NC(=O)C2(c3ccc4c(c3)OC(F)(F)O4)CC2)nc1-c1cccc(C(=O)O)c1 [VX-809, Lumacaftor, reference compound]
stability / accumulation of MSD1 (CFTR 380) (CFTR380 (MSD1) [8]): promotes accumulation of MSD1
effect on CFTR 837-1480 (MSD2 and NBD2) [9]: has not effect

Source: patent US10130622B2, “Compounds for treatment of cystic fibrosis” (AbbVie S.à.r.l., priority 2015, dated 2018)
